Reference: patent US8716246B2, “Azuvirin peptides” (The Regents of the University of California, priority 2011, dated 2014)
Square brackets hold non-standard residues; d marks the D form. Peptide text beside a SMILES is read from it. * marks the point of attachment. Oic = O=C(O)[C@@H]1C[C@@H]2CCCC[C@@H]2N1; Cha = N[C@@H](CC1CCCCC1)C(=O)O; Tle = CC(C)(C)[C@H](N)C(=O)O; Nicotinoyl = O=C(c1cccnc1)*; Acm = CC(=O)NC*

What was measured:
[1] = molecular target: T1, rhEphB4 (Homo sapiens, UniProt P54760); test: SPR binding to immobilized rhEphB4 (Biacore 3000)
T1 construct: purchased R&D Systems, Inc., Minneapolis, Minn
T1 sequence (P54760 16-987): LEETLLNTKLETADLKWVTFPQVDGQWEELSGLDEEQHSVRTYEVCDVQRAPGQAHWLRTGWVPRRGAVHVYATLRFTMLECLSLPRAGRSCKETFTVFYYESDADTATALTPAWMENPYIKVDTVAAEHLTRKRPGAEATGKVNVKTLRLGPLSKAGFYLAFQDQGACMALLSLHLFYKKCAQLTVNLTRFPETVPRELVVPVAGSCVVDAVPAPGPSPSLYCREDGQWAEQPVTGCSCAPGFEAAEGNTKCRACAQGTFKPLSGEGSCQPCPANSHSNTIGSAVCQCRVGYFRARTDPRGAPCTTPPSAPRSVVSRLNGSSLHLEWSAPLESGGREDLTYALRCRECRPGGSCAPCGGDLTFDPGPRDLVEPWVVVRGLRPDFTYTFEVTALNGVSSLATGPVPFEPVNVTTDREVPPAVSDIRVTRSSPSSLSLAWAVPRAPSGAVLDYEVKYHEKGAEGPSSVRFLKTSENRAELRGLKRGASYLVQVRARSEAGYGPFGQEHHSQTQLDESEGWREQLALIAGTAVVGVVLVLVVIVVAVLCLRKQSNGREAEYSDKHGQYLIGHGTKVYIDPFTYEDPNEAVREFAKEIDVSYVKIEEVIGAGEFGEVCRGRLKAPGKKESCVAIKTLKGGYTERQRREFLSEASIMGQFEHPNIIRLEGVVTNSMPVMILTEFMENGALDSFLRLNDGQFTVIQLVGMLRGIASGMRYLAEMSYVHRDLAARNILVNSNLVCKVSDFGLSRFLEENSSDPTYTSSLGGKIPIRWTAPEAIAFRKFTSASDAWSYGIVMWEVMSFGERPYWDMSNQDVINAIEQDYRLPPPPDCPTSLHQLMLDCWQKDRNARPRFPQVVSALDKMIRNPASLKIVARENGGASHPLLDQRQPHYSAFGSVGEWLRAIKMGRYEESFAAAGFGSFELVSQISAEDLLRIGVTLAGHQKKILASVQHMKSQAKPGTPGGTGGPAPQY
Description: (§1) Binding to selected ephrin receptors was measured by surface plasmon resonance on a Biacore3000 instrument. Commercially available ephrin receptors: EphA2, EphB2 and EphB4 (R&D Systems) were immobilized on a CM-5 chip by amine coupling and tested peptides were passed over a chip surface as analytes.
(§2) Binding studies. Binding studies were performed by surface plasmon resonance (SPR) on a BIAcore 3000 system (BiaCore AB, Piscataway, N.J.). BIAcore CM5 sensor chips were utilized in all experiments. Binding studies were performed in HBS-EP running buffer (pH=7.4) containing 10 mM HEPES, 150 mM NaCl, 3 mM EDTA, and 0.005% polysorbate 20. Commercially available ephrin receptors: EphA2, EphB2 and EphB4 (R&D Systems, Inc., Minneapolis, Minn.) were immobilized on a CM5 sensor chip using the amine coupling method. The chip was activated by mixing 400 mM N-ethyl-N-(3-dimethylaminopropyl)-carbodiimide hydrochloride and 100 mM N-hydroxysuccinimide. Residual reactive groups on the chip surface were blocked using 1.0 M ethanolamine/HCl (pH=8.5). The flow cell-1 chip, which served as a control, lacked immobilized protein but was treated with N-ethyl-N-(3-dimethylaminopropyl)-carbodiimide hydrochloride, N hydroxysuccinimide, and ethanolamine/HCl. Binding signals were corrected for nonspecific binding by subtracting the flow cell-1 signal (blank surface). To regenerate chip surfaces, bound ligands were removed with 10 mM HCl. Data were analyzed with BIAevaluation 4.1 software (Biacore, Piscataway, N.J.).

[2] = MultiTox-Fluor Multiplex Cytotoxicity Assay, RAW 264.7 cells; type: cell-based; conditions: mouse, 24 h co-culture, read-out: LD50, RAW cells
Description: Experiments were carried out using MultiTox-Fluor Multiplex Cytotoxicity Assay (Promega Corp., Madison, Wis.) as previously described. This assay simultaneously measures the number of live and dead cells in culture wells based on the activity of two proteases, one a marker of cell viability, and the other a marker of cytotoxicity, which yield products with different excitation and emission spectra. Briefly, for cytotoxicity experiments murine LCC (or RAW 264.7) cells were plated in a 96-well plate at a density of 1×10^4 cells/well in a total volume of 50 μl of culture media and treated with various concentrations of tested peptides (50 μl of 0-400 μM peptides in culture media). Cells' viability was assessed 24 h later by MultiTox-Fluor Multiplex Cytotoxicity Assay (incubation time 1 h). For cell viability experiments, LCC cells were plated in a 96-well plate at a density of 5×10^3 cells/well in a total volume of 50 μl of culture media and treated with various concentrations of tested peptide (50 μl of 0-200 μM peptide in culture media) for 1 hour prior to 0, 2, 4 Gy irradiation. Cell viability was assessed 72 h later by MultiTox-Fluor Multiplex Cytotoxicity Assay (incubation time 1 h). All experiments were carried out in triplicates.

[3] = Observation of toxicity during the in vivo mouse studies; set-up: species or system C57BL/6 mice; conditions: 25 mg/kg IP
Description: Animal experiments. C57BL/6 gnotobiotic mice (8 weeks old) were obtained from the UCLA AALAC accredited Department of Radiation Oncology Facility and intravenously injected with 5×10^5 cells of syngeneic LLC. Various treatments were initiated 4 days later, after cancer engraftment. In general, each animal received intraperitoneally a total of 500 μg (˜25 mg/kg) of peptide (or equimolar amount of nicotinamide) in 4 daily doses 60 min before local thoracic irradiation (0 or 4 Gy, total dose: 4.4=16 Gy) that was delivered using an Atomic Energy of Canada cesium gamma irradiator with a dose rate of approximately 0.6 Gy/min with the rest of the body shielded. Prior to irradiation animals were anesthetized by intraperitoneal injection of ketamine/xylazine mixture. Animals were sacrificed on the 14th day of the experiment and lung tumor nodules were counted. All experiments were approved by the UCLA Animal Care and Use Committee and conformed to local and national guidelines.
C57BL/6 mice (8 weeks old) were injected subcutaneously with 1.0×10^6 cells of syngeneic LLC (leg). After 10 days, palpable tumors of approximately 5 mm diameter appeared and treatment was initiated. […] Tumor size was assessed every two days and animals sacrificed as necessary according to the UCLA Animal Care guidelines.

[4] = molecular target: rhEphA2 (Homo sapiens, UniProt P29317); test: SPR binding to immobilized rhEphA2 (Biacore 3000); set-up: purchased R&D Systems, Inc., Minneapolis, Minn
Description: as §1, §2

CC(=O)NCSC[C@H](NC(=O)[C@H](CC1CCCCC1)NC(=O)[C@H](CC1CCCCC1)NC(=O)[C@@H](CCCCNC(=O)c1cccnc1)NC(=O)[C@@H](N)Cc1ccc(O)cc1)C(=O)N[C@H](C(=O)N[C@@H](CC1CCCCC1)C(=O)N1[C@H](C(=O)N[C@H](CCCNC(=N)N)C(=O)N[C@@H](Cc2c[nH]cn2)C(=O)N[C@@H](CCCNC(=N)N)C(=O)N[C@H](C(=O)N[C@@H](CC2CCCCC2)C(=O)N[C@@H](CSCNC(C)=O)C(=O)N[C@H](CCCCN)C(N)=O)[C@@H](C)O)C[C@@H]2CCCC[C@@H]21)C(C)(C)C [AzV36-NicL, YkNic-Cha-Cha-Cam-Tle-Cha-Oic-rHRT-Cha-Cam-k-CONH] (H-Y[dK](Nicotinoyl)[Cha][Cha]C(Acm)[Tle][Cha][Oic][dR]HRT[Cha]C(Acm)[dK]-NH2)
Kd [1]: 5.83 ± 1.4 nM | CC50 at 24 h [2]: 10300 ± 780 nM | toxic effect of the injections in vivo [3]: no obvious toxic effect | Kd [4]: 13.9 ± 2.9 nM
